Assay results from ChEMBL document CHEMBL3885881, “DrugMatrix”.

Species: Rattus norvegicus
Experiment: DrugMatrix - Regimen: Daily Repeat
Assay type: toxicity, organism-based, Sprague-Dawley
Set-up: regimen Daily Repeat, gender Male, age 6-8 weeks
Conditions: in vivo, ip, route intraperitoneal, vehicle 100 % SALINE; for ABSOLUTE BASOPHIL / ABSOLUTE EOSINOPHIL / ABSOLUTE LYMPHOCYTE / ABSOLUTE MONOCYTE / ABSOLUTE SEGMENTED NEUTROPHIL / BASOPHIL / EOSINOPHIL / ERYTHROCYTE COUNT / HEMATOCRIT / HEMOGLOBIN / LEUKOCYTE COUNT / LYMPHOCYTE / MEAN CORPUSCULAR HEMOGLOBIN / MEAN CORPUSCULAR HEMOGLOBIN CONCENTRATION / MEAN CORPUSCULAR VOLUME / MONOCYTE / NEUTROPHIL / PLATELET COUNT: tissue Blood; for ALANINE AMINOTRANSFERASE / ALBUMIN / ALKALINE PHOSPHATASE / ASPARTATE AMINOTRANSFERASE / BLOOD UREA NITROGEN / CHLORIDE / CHOLESTEROL / CREATININE / GLUCOSE / LACTATE DEHYDROGENASE / LIPASE / PHOSPHORUS / POTASSIUM / SODIUM / TOTAL BILIRUBIN / TOTAL PROTEIN / URIC ACID / CREATINE PHOSPHOKINASE: tissue Plasma
[1] = 0 mg/kg, 120 h, dose level Control, time 5 day
[2] = 0 mg/kg, […], dose level Control, time 14 day
[3] = 0 mg/kg, […], dose level Control, time 28 day
[4] = 160 mg/kg, 120 h, dose level High, time 5 day

NCC[C@H](O)C(=O)N[C@@H]1C[C@H](N)[C@@H](O[C@H]2O[C@H](CN)[C@@H](O)[C@H](O)[C@H]2O)[C@H](O)[C@H]1O[C@H]1O[C@H](CO)[C@@H](O)[C@H](N)[C@H]1O [AMIKACIN] showed an ABSOLUTE BASOPHIL [1] of 32 cells/µL, an ABSOLUTE EOSINOPHIL [1] of 110 cells/µL and an ABSOLUTE LYMPHOCYTE [1] of 6630 cells/µL. For the same compound, the ABSOLUTE MONOCYTE [1] was 140 cells/µL, the ABSOLUTE SEGMENTED NEUTROPHIL [1] was 1170 cells/µL and the BASOPHIL [1] was 0.38%. For the same compound, the EOSINOPHIL [1] was 1.28%, the “ERYTHROCYTE COUNT” value [1] was 7.45 x10E6/uL and the HEMATOCRIT [1] was 45.74%. For the same compound, the HEMOGLOBIN [1] was 14.72 G/DL, the “LEUKOCYTE COUNT” value [1] was 8.11 x10E3/uL and the LYMPHOCYTE [1] was 81.3%. For the same compound, the “MEAN CORPUSCULAR HEMOGLOBIN” value [1] was 19.76 pg, the “MEAN CORPUSCULAR HEMOGLOBIN CONCENTRATION” value [1] was 32.16 G/DL and the “MEAN CORPUSCULAR VOLUME” value [1] was 61.38 fL. For the same compound, the MONOCYTE [1] was 1.76%, the NEUTROPHIL [1] was 14.9% and the “PLATELET COUNT” value [1] was 1322.4 x10E3/uL. For the same compound, the “ALANINE AMINOTRANSFERASE” value [1] was 25.8 u/L, the ALBUMIN [1] was 3.64 G/DL and the “ALKALINE PHOSPHATASE” value [1] was 233.6 u/L. For the same compound, the “ASPARTATE AMINOTRANSFERASE” value [1] was 81.4 u/L, the “BLOOD UREA NITROGEN” value [1] was 14.4 mg/dL and the CHLORIDE [1] was 105.6 MEQ/L. It also gave a CHOLESTEROL [1] of 69.2 mg/dL, a CREATININE [1] of 0.56 mg/dL and a GLUCOSE [1] of 125.4 mg/dL. For the same compound, the “LACTATE DEHYDROGENASE” value [1] was 105.4 u/L, the LIPASE [1] was 22.4 u/L and the PHOSPHORUS [1] was 11.48 mg/dL. For the same compound, the POTASSIUM [1] was 5.52 MEQ/L, the SODIUM [1] was 147 MEQ/L and the “TOTAL BILIRUBIN” value [1] was 0.2 mg/dL. The “TOTAL PROTEIN” value [1] was 6.1 G/DL, the “URIC ACID” value [1] was 1.06 mg/dL and the ABSOLUTE BASOPHIL [2] was 130 cells/µL. The ABSOLUTE EOSINOPHIL [2] was 140 cells/µL, the ABSOLUTE LYMPHOCYTE [2] was 13500 cells/µL and the ABSOLUTE MONOCYTE [2] was 400 cells/µL. It also gave an ABSOLUTE SEGMENTED NEUTROPHIL [2] of 2330 cells/µL, a BASOPHIL [2] of 0.72% and an EOSINOPHIL [2] of 0.86%. The “ERYTHROCYTE COUNT” value [2] was 7.74 x10E6/uL, the HEMATOCRIT [2] was 45.98% and the HEMOGLOBIN [2] was 13.86 G/DL. The “LEUKOCYTE COUNT” value [2] was 16.61 x10E3/uL, the LYMPHOCYTE [2] was 81.34% and the “MEAN CORPUSCULAR HEMOGLOBIN” value [2] was 18 pg. The “MEAN CORPUSCULAR HEMOGLOBIN CONCENTRATION” value [2] was 30.22 G/DL, the “MEAN CORPUSCULAR VOLUME” value [2] was 59.4 fL and the MONOCYTE [2] was 2.46%. For the same compound, the NEUTROPHIL [2] was 14.14%, the “PLATELET COUNT” value [2] was 1445.5 x10E3/uL and the ABSOLUTE BASOPHIL [3] was 91 cells/µL. For the same compound, the ABSOLUTE EOSINOPHIL [3] was 110 cells/µL, the ABSOLUTE LYMPHOCYTE [3] was 9910 cells/µL and the ABSOLUTE MONOCYTE [3] was 210 cells/µL. The ABSOLUTE SEGMENTED NEUTROPHIL [3] was 1560 cells/µL, the BASOPHIL [3] was 0.77% and the EOSINOPHIL [3] was 0.92%. The “ERYTHROCYTE COUNT” value [3] was 8.21 x10E6/uL, the HEMATOCRIT [3] was 47.53% and the HEMOGLOBIN [3] was 15.65 G/DL. For the same compound, the “LEUKOCYTE COUNT” value [3] was 11.91 x10E3/uL, the LYMPHOCYTE [3] was 83.34% and the “MEAN CORPUSCULAR HEMOGLOBIN” value [3] was 19.07 pg. For the same compound, the “MEAN CORPUSCULAR HEMOGLOBIN CONCENTRATION” value [3] was 32.93 G/DL, the “MEAN CORPUSCULAR VOLUME” value [3] was 57.9 fL and the MONOCYTE [3] was 1.68%. The NEUTROPHIL [3] was 12.97%, the “PLATELET COUNT” value [3] was 1323.8 x10E3/uL and the “ALANINE AMINOTRANSFERASE” value [2] was 31.6 u/L. For the same compound, the ALBUMIN [2] was 3.66 G/DL, the “ALKALINE PHOSPHATASE” value [2] was 228.6 u/L and the “ASPARTATE AMINOTRANSFERASE” value [2] was 79.6 u/L. The “BLOOD UREA NITROGEN” value [2] was 11.2 mg/dL, the CHLORIDE [2] was 107 MEQ/L and the CHOLESTEROL [2] was 57 mg/dL. For the same compound, the “CREATINE PHOSPHOKINASE” value [2] was 233.6 u/L, the CREATININE [2] was 0.5 mg/dL and the GLUCOSE [2] was 124.4 mg/dL. For the same compound, the “LACTATE DEHYDROGENASE” value [2] was 106.4 u/L, the LIPASE [2] was 24.4 u/L and the PHOSPHORUS [2] was 10.52 mg/dL. The POTASSIUM [2] was 6.34 MEQ/L, the SODIUM [2] was 149.2 MEQ/L and the “TOTAL BILIRUBIN” value [2] was 0.2 mg/dL. The “TOTAL PROTEIN” value [2] was 6.48 G/DL, the “URIC ACID” value [2] was 0.94 mg/dL and the “ALANINE AMINOTRANSFERASE” value [3] was 30 u/L. For the same compound, the ALBUMIN [3] was 3.71 G/DL, the “ALKALINE PHOSPHATASE” value [3] was 186.8 u/L and the “ASPARTATE AMINOTRANSFERASE” value [3] was 78.2 u/L. The “BLOOD UREA NITROGEN” value [3] was 14.2 mg/dL, the CHLORIDE [3] was 105.4 MEQ/L and the CHOLESTEROL [3] was 44.9 mg/dL. The “CREATINE PHOSPHOKINASE” value [3] was 334.3 u/L, the CREATININE [3] was 0.6 mg/dL and the GLUCOSE [3] was 147.2 mg/dL. The “LACTATE DEHYDROGENASE” value [3] was 123.1 u/L, the LIPASE [3] was 9.6 u/L and the PHOSPHORUS [3] was 10.01 mg/dL. The POTASSIUM [3] was 6.57 MEQ/L, the SODIUM [3] was 149.5 MEQ/L and the “TOTAL BILIRUBIN” value [3] was 0.21 mg/dL. The “TOTAL PROTEIN” value [3] was 6.66 G/DL, the “URIC ACID” value [3] was 1.26 mg/dL and the ABSOLUTE BASOPHIL [4] was 42 cells/µL. It also gave an ABSOLUTE EOSINOPHIL [4] of 76 cells/µL and an ABSOLUTE LYMPHOCYTE [4] of 7260 cells/µL.
